Results on 42 molecules are retold here after BindingDB's records for doi:10.1016/j.chembiol.2003.08.010 (Brigham and Women's Hospital, 2003).

SMILES strings stand for the structures.

Assay [1] deals with T1, Ubiquitin carboxyl-terminal hydrolase isozyme L3 (Mus musculus, UniProt Q9JKB1).
T1 sequence (Q9JKB1 whole entry): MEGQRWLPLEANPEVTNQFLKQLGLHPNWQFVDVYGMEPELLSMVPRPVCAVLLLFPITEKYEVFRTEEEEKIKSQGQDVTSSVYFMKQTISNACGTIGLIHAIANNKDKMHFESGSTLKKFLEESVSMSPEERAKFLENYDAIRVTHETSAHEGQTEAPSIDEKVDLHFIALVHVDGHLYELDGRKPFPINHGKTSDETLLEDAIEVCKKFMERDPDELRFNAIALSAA
Kind of assay: Inhibition Activity Assay. The following applies: pH 7.6; 25 °C. From the text: (§1) Inhibition activity and selectivity for UCH-L1 and UCH-L3.

Assay [2] concerns the target T2, Ubiquitin carboxyl-terminal hydrolase isozyme L1 (Mus musculus, UniProt Q9R0P9).
T2 sequence (Q9R0P9 whole entry): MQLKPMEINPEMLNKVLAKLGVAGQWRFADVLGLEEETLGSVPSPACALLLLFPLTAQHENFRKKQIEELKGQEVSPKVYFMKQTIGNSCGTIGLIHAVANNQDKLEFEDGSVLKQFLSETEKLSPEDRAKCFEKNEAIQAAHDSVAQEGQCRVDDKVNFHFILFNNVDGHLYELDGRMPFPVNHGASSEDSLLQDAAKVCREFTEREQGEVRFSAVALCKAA
Kind of assay: Inhibition Activity Assay. The note with it: pH 7.6; 25 °C.
Description: as §1

As usually defined, the IC50 is the concentration at which inhibition is half-maximal. A lower IC50 goes with greater potency in that assay. On to `Cc1cc(Cl)c2oc(C(=O)N3CCC(O)(c4ccccc4)CC3)c(C)c2c1` [1-[(7-chloro-3,5-dimethyl-1-benzofuran-2-yl)carbonyl]-4-phenylpiperidin-4-ol], for which the values for the IC50 in assay [1] and in assay [2] were 25 µM and 1.2 µM, respectively.

With `Cc1ccc(-c2cc(-c3ccccc3)nc(N(C)N)n2)cc1` [1-methyl-1-[4-(4-methylphenyl)-6-phenylpyrimidin-2-yl]hydrazine], the half-maximal inhibitory concentration (IC50) amounted to 113 µM in assay [1] and 4.1 µM in assay [2].

In the case of `Cc1cccc(NC(=O)c2nc[nH]c2C(=O)N[C@@H](Cc2ccccc2)C(=O)OC(C)(C)C)c1` [tert-butyl (2S)-2-[[4-[(3-methylphenyl)carbamoyl]-1H-imidazole-5-carbonyl]amino]-3-phenylpropanoate], the figures for the IC50 in assay [1] and in assay [2] were 52 µM and 12 µM, respectively.

Consider `CCCOc1ccc(/C=C/c2c([N+](=O)[O-])c(=O)n(C)c(=O)n2C)cc1` [1,3-dimethyl-5-nitro-6-[(E)-2-(4-propoxyphenyl)vinyl]pyrimidine-2,4-quinone], for which the IC50 in assay [1] was 17 µM; in assay [2], 0.81 µM.

`Cc1ccc(NC(=O)c2[nH]cnc2C(=O)N[C@@H](CCCCNC(=O)OC(C)(C)C)C(=O)OC(C)(C)C)cc1` [(2S)-6-(tert-butoxycarbonylamino)-2-[[4-(p-tolylcarbamoyl)-1H-imidazole-5-carbonyl]amino]hexanoic acid tert-butyl ester]: the values for the IC50 in assay [1] and in assay [2] were 32 µM and 6 µM, respectively.

In the case of `CCCCn1c(=O)c(C(=O)NCc2ccccc2Cl)c(O)c2ccccc21` [MLS001202596], the IC50 came out at 41 µM in assay [1] and 17 µM in assay [2].

For `Cc1cccc(NC(=O)c2nc[nH]c2C(=O)N[C@@H](CC(C)C)C(=O)OCc2ccccc2)c1` [benzyl (2S)-4-methyl-2-[[4-[(3-methylphenyl)carbamoyl]-1H-imidazole-5-carbonyl]amino]pentanoate], the figures for the IC50 in assay [1] and in assay [2] were 33 µM and 12 µM, respectively.

On to `CC1=CC(=O)c2ccccc2C1=O` [Vitamin K3], for which the IC50 amounted to 71 µM in assay [1] and 290 µM in assay [2].

For `Oc1ccc(Oc2ccc(Oc3ccc(O)cc3)cc2)cc1` [MLS001162917], the values for the concentration for half-maximal inhibition (IC50) in assay [1] and in assay [2] were 47 µM and 3.4 µM, respectively.

In the case of `COc1ccc2nc(C3CCCCC3)nc(C3CCCCC3)c2c1` [2,4-Dicyclohexyl-6-methoxy-quinazoline], the IC50 in assay [1] came out at 47 µM; in assay [2] it was 126 µM.

For the molecule `CCOC(=O)C1=C(C)N=c2s/c(=C\c3ccc(O)c([N+](=O)[O-])c3)c(=O)n2C1c1ccccc1OC` (configuration not stated) [ethyl 2-[(4-hydroxy-3-nitrophenyl)methylidene]-5-(2-methoxyphenyl)-7-methyl-3-oxo-5H-[1,3]thiazolo[3,2-a]pyrimidine-6-carboxylate], the IC50 was found to be 40 µM in assay [1] and 1.8 µM in assay [2].

In the case of `CCC1=NN(C(=O)c2ccccc2O)C(O)(c2ccccc2)C1` (configuration not stated) [(3-ethyl-5-hydroxy-5-phenyl-4H-pyrazol-1-yl)-(2-hydroxyphenyl)methanone], the IC50 was found to be 72 µM in assay [1] and 3.4 µM in assay [2].

For `C=CC(C)(C)c1c(O)c(CC=C(C)C)c(O)c2c(=O)c3ccc(O)c(O)c3oc12` [SMR000470960], the concentration for half-maximal inhibition (IC50) in assay [2] was found to be 1.8 µM.

`COc1ccc(-c2csc(NC(=O)c3ccc(C(C)(C)C)cc3)c2C(=O)O)cc1` [SMR000475974]: the midpoint of inhibition in assay [2], the IC50, lay at 22 µM.

Regarding `COc1ccc(NC(=O)c2[nH]cnc2C(=O)N[C@@H](CC(C)C)C(=O)OC(C)(C)C)cc1` [(2S)-2-[[4-[(4-methoxyphenyl)carbamoyl]-1H-imidazole-5-carbonyl]amino]-4-methyl-valeric acid tert-butyl ester], the half-inhibitory concentration (IC50) came to 48 µM in assay [1] and 27 µM in assay [2].

In the case of `c1ccc(-c2nc(C3CCCCC3)c3ccccc3n2)cc1` [4-Cyclohexyl-2-phenyl-quinazoline], the half-maximal inhibitory concentration (IC50) in assay [1] was 0.6 µM; in assay [2] it was 75 µM.

In assay [2], `CC(=NNC(=O)c1ccc(C)cc1)c1c(C)[nH]n(-c2ccccc2)c1=O` [4-Methyl-benzoic acid N'-[1-(3-methyl-5-oxo-1-phenyl-1,5-dihydro-pyrazol-4-ylidene)-ethyl]-hydrazide] came in with an IC50 of 95 µM.

For the molecule `CCN(CC)c1nc(Nc2ccc([N+](=O)[O-])cc2)nc(N(CC)CC)n1` [2-N,2-N,4-N,4-N-tetraethyl-6-N-(4-nitrophenyl)-1,3,5-triazine-2,4,6-triamine], the half-maximal inhibitory concentration (IC50) in assay [1] came to 18 µM; in assay [2], 2.9 µM.

Take `CC(C)(C)OC(=O)NCCCC[C@H](NC(=O)c1[nH]cnc1C(=O)Nc1ccc(Cl)cc1)C(=O)OC(C)(C)C` [(2S)-2-[[[4-[(4-chloroanilino)-oxomethyl]-1H-imidazol-5-yl]-oxomethyl]amino]-6-[[(2-methylpropan-2-yl)oxy-oxomethyl]amino]hexanoic acid tert-butyl ester]: the IC50 is 58 µM in assay [1] and 19 µM in assay [2].

`CCSc1nsc(NC(=O)Nc2cccc(F)c2)n1` [1-[3-(ethylthio)-1,2,4-thiadiazol-5-yl]-3-(3-fluorophenyl)urea] had an IC50 in assay [2] of 16 µM. This lies in the double-digit micromolar range.

Turning to `COc1ccccc1-c1cc(-c2ccccc2)nc(SCC(=O)O)c1C#N` [2-[[3-cyano-4-(2-methoxyphenyl)-6-phenyl-2-pyridinyl]thio]acetic acid], the IC50 in assay [1] is 23 µM; in assay [2], 0.94 µM.

Consider `COC(=O)[C@H]1[C@H](CCc2ccccc2)NC(=O)N(Cc2ccccc2)[C@@H]1C`, for which the IC50 came out at 116 µM in assay [1] and 51 µM in assay [2].

For `Cc1nc(N=NC(C)c2ccc(Br)cc2)cc(N2CCCCC2)n1` (configuration not stated) [N-[1-(4-bromophenyl)ethylideneamino]-2-methyl-6-piperidin-1-ylpyrimidin-4-amine], the concentration for half-maximal inhibition (IC50) amounted to 16 µM in assay [1] and 2.6 µM in assay [2].

In assay [2], `O=C1C=C(N2CCCCC2)c2ccccc2C1=O` [4-piperidin-1-ylnaphthalene-1,2-dione] came in with a half-maximal inhibitory concentration (IC50) of 78 µM.

With `COc1ccc(N(CC(=O)NCCSCc2cccc(Cl)c2)S(C)(=O)=O)cc1Cl` [N-[2-[(3-chlorobenzyl)thio]ethyl]-2-(3-chloro-N-mesyl-4-methoxy-anilino)acetamide], the figures for the IC50 in assay [1] and in assay [2] were 22 µM and 1.3 µM, respectively.

On to `CCOc1ccc(CN=Nc2cc(N3CCOCC3)nc(C)n2)c(O)c1` [(6E)-3-ethoxy-6-[[2-(2-methyl-6-morpholin-4-yl-pyrimidin-4-yl)hydrazinyl]methylidene]cyclohexa-2,4-dien-1-one], for which, in assay [2], the half-maximal inhibitory concentration (IC50) was 19 µM. This counts as double-digit micromolar.

`CC(C)=CCc1cc([C@@H]2COc3c(ccc4c3C=CC(C)(C)O4)C2)c(O)cc1O` [5'-prenyl-glabridin] showed a 50% inhibitory concentration (IC50) in assay [2] of 6.1 µM. Compared with the last molecule, the IC50 is about 3.1-fold lower.

In turn, `CC(C)=CCc1c2c(c(O)c3c(=O)c4c(oc13)-c1cc(O)c(O)cc1OC4C=C(C)C)C=CC(C)(C)O2` (configuration not stated) [SMR000470928] came in with a 50% inhibitory concentration (IC50) in assay [2] of 12 µM.

`CCCCn1c(=O)c(C(=O)NCCc2ccccc2)c(O)c2ccccc21` [1-butyl-2-oxidanyl-4-oxidanylidene-N-(2-phenylethyl)quinoline-3-carboxamide]: the IC50 in assay [2] amounted to 12 µM.

Molecule `Oc1c(Br)cc(Br)cc1CNc1cccc2cccnc12` [SMR000503121] displayed an IC50 in assay [2] of 14 µM.

For the molecule `CCCc1cc(=O)n2[nH]c(C)c(-c3ccc(Cl)cc3)c2n1` [SMR000518792], in assay [2], 12 µM corresponded to half-maximal inhibition (IC50). The IC50 values of the last two molecules are within 1.5-fold of each other.

As to `CCOC(=O)C1=C(C)N=c2sc(=Cc3ccc(OCC(=O)O)c(OC)c3)c(=O)n2C1c1ccc(Cl)cc1` (configuration not stated) [2-[4-[[6-carbethoxy-5-(4-chlorophenyl)-3-keto-7-methyl-5H-thiazolo[3,2-a]pyrimidin-2-ylidene]methyl]-2-methoxy-phenoxy]acetic acid], in assay [2], the IC50 is 43 µM. This IC50 is about 3.6-fold higher than that of the molecule before.

`CC1Oc2cc3oc4c(O)c5c(cc4c(=O)c3c(O)c2C1(C)C)C=CC(C)(C)O5` (configuration not stated) [gerontoxanthone A] returned an IC50 in assay [2] of 4.1 µM.

For the molecule `CC1(C)CC(=O)C(C2C3=C(CC(C)(C)CC3=O)Oc3c(Br)cc(Br)cc32)C(=O)C1` (configuration not stated) [5,7-bis(bromanyl)-9-(4,4-dimethyl-2-oxidanyl-6-oxidanylidene-cyclohexen-1-yl)-3,3-dimethyl-4,9-dihydro-2H-xanthen-1-one], the half-maximal inhibitory concentration (IC50) in assay [2] is 12 µM.

Regarding `CC(C)=CCOc1ccc([C@@H]2COc3c(ccc4c3C=CC(C)(C)O4)C2)c(O)c1` [MLS000697599], in assay [2], half-maximal inhibition (IC50) required 8.8 µM. This IC50 and that of the molecule before are within 1.5-fold of each other.

Molecule `CC(C)(C)c1ccc(O)c(N=Cc2c(O)ccc3ccccc23)c1` [MLS001211069] returned an IC50 in assay [2] of 15 µM.

As for `O=C(Nc1scc(-c2ccc(Br)cc2)c1C(=O)O)c1ccccc1F` [4-(4-bromophenyl)-2-[[(2-fluorophenyl)-oxomethyl]amino]-3-thiophenecarboxylic acid], in assay [2], it took 12 µM to reach half-maximal inhibition (IC50).

In the case of `Cc1cccc(OCC(=O)Nc2ccncc2)c1` [2-(3-methylphenoxy)-N-pyridin-4-yl-ethanamide], 36 µM corresponded to half-maximal inhibition in assay [2] (IC50).

`O=[N+]([O-])c1c(Nc2cccc(O)c2)cc(Cl)c2nonc12` [3-[(7-chloro-4-nitro-benzofurazan-5-yl)amino]phenol]: the half-maximal inhibitory concentration (IC50) in assay [2] was > 100 µM.

In turn, `CC(C)(C)OC(=O)[C@H](Cc1ccccc1)NC(=O)c1[nH]cnc1C(=O)Nc1cccc(Cl)c1` yielded an IC50 in assay [2] of 17 µM. That is a double-digit micromolar value.

With `Cc1ccc(Cn2c(C(CO)Nc3nc(-c4ccc(F)cc4)cs3)nc3ccccc32)cc1` (configuration not stated) [2-[4-(4-Fluoro-phenyl)-thiazol-2-ylamino]-2-[1-(4-methyl-benzyl)-1H-benzoimidazol-2-yl]-ethanol], it took 8.8 µM to reach half-maximal inhibition in assay [2] (IC50).

With `CC[n+]1c(/C=C/N(C)c2ccccc2)n(-c2ccccc2)c2ccc(-c3nc4ccccc4s3)cc21` [MLS001207496], the IC50 in assay [2] came out at 50 µM.
